Measurements taken from PMC6679423 (International Journal of Molecular Sciences, 2019).

Tests used:
[1] = target: CYP enzymes in human liver microsomes (Homo sapiens, UniProt P08684); assay: Effects of inhibitors on N-desmethylvandetanib formation in human liver microsomes; conditions: inhibitor 50 μM equimolar to vandetanib (50 μM), 0.1 nmol microsomal CYP
Experimental: (§1) After the incubations, 5 µL of 1 mM phenacetine (dissolved in methanol) was added as internal standard. The reaction was stopped by extraction with dichlormethane (2 × 1 mL).
(§2) Inhibition studies in human liver microsomes were essentially conducted as reported previously.

[2] = target: CYP enzymes in human liver microsomes (N-desmethylvandetanib formation) (Homo sapiens, UniProt P08684); assay: as above; conditions: human, pH 7.4
CYP enzymes in human liver microsomes (N-desmethylvandetanib formation), sequence (P08684 2-503): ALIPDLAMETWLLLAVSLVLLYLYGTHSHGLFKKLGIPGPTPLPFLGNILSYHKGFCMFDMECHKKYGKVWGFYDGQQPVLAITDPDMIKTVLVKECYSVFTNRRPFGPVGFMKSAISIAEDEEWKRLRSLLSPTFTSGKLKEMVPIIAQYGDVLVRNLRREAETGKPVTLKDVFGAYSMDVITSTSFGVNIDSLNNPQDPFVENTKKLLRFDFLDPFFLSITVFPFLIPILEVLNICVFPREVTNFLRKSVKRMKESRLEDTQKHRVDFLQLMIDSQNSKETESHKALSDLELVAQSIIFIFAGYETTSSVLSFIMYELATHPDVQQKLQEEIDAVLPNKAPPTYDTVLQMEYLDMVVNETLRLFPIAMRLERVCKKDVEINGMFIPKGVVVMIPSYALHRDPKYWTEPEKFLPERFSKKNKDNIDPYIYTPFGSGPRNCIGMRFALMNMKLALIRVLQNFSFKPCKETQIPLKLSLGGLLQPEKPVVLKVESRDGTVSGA
CYP enzymes in human liver microsomes (N-desmethylvandetanib formation), sequence (P16435 2-677, further chain): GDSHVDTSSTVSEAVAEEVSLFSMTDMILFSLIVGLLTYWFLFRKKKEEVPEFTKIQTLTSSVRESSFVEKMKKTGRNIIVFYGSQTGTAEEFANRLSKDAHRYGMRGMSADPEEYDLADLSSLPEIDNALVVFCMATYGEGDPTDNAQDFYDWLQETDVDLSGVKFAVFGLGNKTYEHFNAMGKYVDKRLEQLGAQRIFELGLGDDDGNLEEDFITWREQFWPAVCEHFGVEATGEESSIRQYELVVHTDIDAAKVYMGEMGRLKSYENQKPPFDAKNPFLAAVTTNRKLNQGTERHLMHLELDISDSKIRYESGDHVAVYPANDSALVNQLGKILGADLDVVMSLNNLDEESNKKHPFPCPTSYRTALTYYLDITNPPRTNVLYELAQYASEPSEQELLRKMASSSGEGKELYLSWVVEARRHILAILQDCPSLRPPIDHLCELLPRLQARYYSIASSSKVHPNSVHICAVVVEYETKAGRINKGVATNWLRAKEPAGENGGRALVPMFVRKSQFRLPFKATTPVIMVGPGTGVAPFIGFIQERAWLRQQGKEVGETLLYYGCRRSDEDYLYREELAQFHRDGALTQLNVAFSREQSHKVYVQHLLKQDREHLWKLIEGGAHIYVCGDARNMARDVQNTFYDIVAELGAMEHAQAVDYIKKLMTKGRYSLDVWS
Experimental: as §1, §2

[3] = target: T1, FMO in human liver microsomes (Homo sapiens, UniProt P31513); assay: Effects of inhibitors on vandetanib-N-oxide formation in human liver microsomes; format: in vitro ADME; conditions: inhibitor 50 μM equimolar to vandetanib (50 μM), 0.25 mg microsomal protein
T1 sequence (P31513 2-532): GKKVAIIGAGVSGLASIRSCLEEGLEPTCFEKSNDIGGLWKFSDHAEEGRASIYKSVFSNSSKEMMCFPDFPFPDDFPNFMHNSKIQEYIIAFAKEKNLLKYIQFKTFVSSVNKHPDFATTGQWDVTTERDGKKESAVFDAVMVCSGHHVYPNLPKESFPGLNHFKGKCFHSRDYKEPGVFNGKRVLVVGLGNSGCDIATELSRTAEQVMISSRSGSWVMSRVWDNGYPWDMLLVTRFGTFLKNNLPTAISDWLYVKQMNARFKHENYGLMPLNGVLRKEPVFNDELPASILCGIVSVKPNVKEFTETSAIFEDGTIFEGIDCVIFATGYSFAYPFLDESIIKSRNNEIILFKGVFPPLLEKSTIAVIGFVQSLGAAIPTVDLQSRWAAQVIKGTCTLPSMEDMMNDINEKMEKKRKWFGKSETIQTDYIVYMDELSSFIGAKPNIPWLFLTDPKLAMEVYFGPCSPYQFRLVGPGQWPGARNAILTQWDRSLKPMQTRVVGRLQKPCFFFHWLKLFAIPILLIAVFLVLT

CYP enzymes in human liver microsomes, sequence (P08684 2-503): as the sequence (P08684 2-503) above
CYP enzymes in human liver microsomes, sequence (P16435 2-677, further chain): as the sequence (P16435 2-677, further chain) above

inhibition at 20 min, 500 µM [2] | SMILES | % of Inhibition, N-Desmethyvandetanib Formation [1] | inhibition at 20 min, 50 µM [2] | % of Inhibition, Vandetanib-N-oxide Formation [3] | % of Inhibition, N-Desmethyvandetanib Formation ([1]; listed as diamantane)
 | CCN(CC)C(=S)S [DDTC, diethyldithiocarbamate] | no inhibitory effects | 0% | no inhibition | 
 | C1C2CC3C4CC5CC(C14)C(C2)C3C5 [Diamantane, diamantane] | 0% |  |  | no inhibitory effects
< 50% | Nc1ccc(S(=O)(=O)Nc2ccnn2-c2ccccc2)cc1 [Sulfaphenazole, sulfaphenazole] |  | 38 ± 4% |  | 
